One block for each compound: values may come before it.
Assays:
U-266 = assay: Antiproliferative activity against human U-266 cells measured after 72 hrs by CCK-8 assay; type: functional, cell-based; conditions: U-266, 72 h, pooled result: one value given for 9 cell lines, strains, targets or settings
K562 [1] = assay: Antiproliferative activity against human K562 cells measured after 72 hrs by CCK-8 assay; type: functional, cell-based; conditions: K562, 72 h
NCI-H1975 = assay: Cytotoxicity against human NCI-H1975 cells assessed as inhibition of cell growth measured after 72 hrs by CellTiter-Glo luminescent viability assay; type: functional, cell-based; conditions: NCI-H1975, 72 h
PC-9 = assay: Cytotoxicity against human PC-9 cells assessed as inhibition of cell growth measured after 72 hrs by CellTiter-Glo luminescent viability assay; type: functional, cell-based; conditions: PC-9, 72 h
K562 [2] = assay: Cytotoxicity against human K562 cells assessed as inhibition of cell growth measured after 72 hrs by CellTiter-Glo luminescent viability assay; type: functional, cell-based; conditions: K562, 72 h
SW480 = assay: Cytotoxicity against human SW480 cells assessed as inhibition of cell growth measured after 72 hrs by CellTiter-Glo luminescent viability assay; type: functional, cell-based; conditions: SW480, 72 h
NCI-H2122 = assay: Cytotoxicity against human NCI-H2122 cells assessed as inhibition of cell growth measured after 72 hrs by CellTiter-Glo luminescent viability assay; type: functional, cell-based; conditions: NCI-H2122, 72 h
HCT-116 = assay: Cytotoxicity against human HCT-116 cells assessed as inhibition of cell growth measured after 72 hrs by CellTiter-Glo luminescent viability assay; type: functional, cell-based; conditions: HCT-116, 72 h
COLO 205 = assay: Cytotoxicity against human COLO 205 cells assessed as inhibition of cell growth measured after 72 hrs by CellTiter-Glo luminescent viability assay; type: functional, cell-based; conditions: COLO 205, 72 h
MC-38 = assay: Cytotoxicity against mouse MC38 cells assessed as inhibition of cell growth measured after 72 hrs by CellTiter-Glo luminescent viability assay; type: functional, cell-based; conditions: MC-38, 72 h
[3] = Inhibition of PI3K (unknown origin); set-up: species or system Homo sapiens
[4] = target: Polyamine deacetylase HDAC10 (Homo sapiens, UniProt Q969S8); assay: Inhibition of HDAC10 (unknown origin)
Polyamine deacetylase HDAC10, sequence (Q969S8 whole entry): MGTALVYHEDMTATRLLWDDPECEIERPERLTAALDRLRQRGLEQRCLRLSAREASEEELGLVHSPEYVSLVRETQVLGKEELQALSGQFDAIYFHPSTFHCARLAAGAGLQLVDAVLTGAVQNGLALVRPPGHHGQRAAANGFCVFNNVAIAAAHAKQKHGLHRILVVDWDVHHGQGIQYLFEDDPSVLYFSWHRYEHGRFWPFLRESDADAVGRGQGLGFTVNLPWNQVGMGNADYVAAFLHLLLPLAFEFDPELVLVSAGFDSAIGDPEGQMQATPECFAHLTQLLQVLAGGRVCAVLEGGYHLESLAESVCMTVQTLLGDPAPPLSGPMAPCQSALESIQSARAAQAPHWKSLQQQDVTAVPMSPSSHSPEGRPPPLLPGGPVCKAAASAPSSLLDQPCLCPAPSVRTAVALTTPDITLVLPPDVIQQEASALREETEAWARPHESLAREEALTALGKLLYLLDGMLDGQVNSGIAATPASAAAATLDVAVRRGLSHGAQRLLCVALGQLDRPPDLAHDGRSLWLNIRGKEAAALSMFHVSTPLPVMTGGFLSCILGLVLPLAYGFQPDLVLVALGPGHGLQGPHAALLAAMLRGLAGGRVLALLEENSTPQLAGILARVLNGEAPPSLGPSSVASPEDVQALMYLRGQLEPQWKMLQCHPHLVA

NCI-H460 = assay: Cytotoxicity against human NCI-H460 cells assessed as inhibition of cell growth measured after 72 hrs by CellTiter-Glo luminescent viability assay; type: functional, cell-based; conditions: NCI-H460, 72 h
Histone deacetylase 2 = Histone deacetylase 2 (Homo sapiens, UniProt Q92769); assay: Inhibition of HDAC2 (unknown origin)
Histone deacetylase 2, sequence (Q92769 whole entry): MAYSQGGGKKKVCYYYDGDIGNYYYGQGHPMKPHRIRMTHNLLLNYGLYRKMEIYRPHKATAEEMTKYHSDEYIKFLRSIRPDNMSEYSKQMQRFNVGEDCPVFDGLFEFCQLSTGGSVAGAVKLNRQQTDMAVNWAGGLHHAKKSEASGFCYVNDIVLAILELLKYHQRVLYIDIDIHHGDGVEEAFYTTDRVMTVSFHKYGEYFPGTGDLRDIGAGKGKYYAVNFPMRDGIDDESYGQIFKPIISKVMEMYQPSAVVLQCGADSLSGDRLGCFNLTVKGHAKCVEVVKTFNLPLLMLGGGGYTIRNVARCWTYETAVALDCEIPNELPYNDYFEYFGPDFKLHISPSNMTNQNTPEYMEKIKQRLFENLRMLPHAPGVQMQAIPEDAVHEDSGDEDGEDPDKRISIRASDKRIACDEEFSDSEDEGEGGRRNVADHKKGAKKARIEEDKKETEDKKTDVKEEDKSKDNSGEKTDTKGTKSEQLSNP

Histone deacetylase 3 = Histone deacetylase 3 (Homo sapiens, UniProt O15379); assay: Inhibition of HDAC3 (unknown origin)
Histone deacetylase 3, sequence (O15379 whole entry): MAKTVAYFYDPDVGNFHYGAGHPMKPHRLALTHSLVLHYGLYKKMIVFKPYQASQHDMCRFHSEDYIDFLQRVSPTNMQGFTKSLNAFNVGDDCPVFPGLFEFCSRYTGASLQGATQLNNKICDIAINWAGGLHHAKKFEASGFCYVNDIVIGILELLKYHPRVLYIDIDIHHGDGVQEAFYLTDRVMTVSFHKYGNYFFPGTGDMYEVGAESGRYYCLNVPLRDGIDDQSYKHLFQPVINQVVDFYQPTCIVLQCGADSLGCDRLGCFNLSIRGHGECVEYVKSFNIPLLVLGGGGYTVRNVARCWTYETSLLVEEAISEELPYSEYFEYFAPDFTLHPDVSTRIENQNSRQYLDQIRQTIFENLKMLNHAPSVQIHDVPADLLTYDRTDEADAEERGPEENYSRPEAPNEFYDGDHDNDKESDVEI

Daudi = assay: Cytotoxicity against human Daudi cells assessed as inhibition of cell growth measured after 72 hrs by CellTiter-Glo luminescent viability assay; type: functional, cell-based
Histone deacetylase 1 = Histone deacetylase 1 (Homo sapiens, UniProt Q13547); assay: Inhibition of HDAC1 (unknown origin)
Histone deacetylase 1, sequence (Q13547 whole entry): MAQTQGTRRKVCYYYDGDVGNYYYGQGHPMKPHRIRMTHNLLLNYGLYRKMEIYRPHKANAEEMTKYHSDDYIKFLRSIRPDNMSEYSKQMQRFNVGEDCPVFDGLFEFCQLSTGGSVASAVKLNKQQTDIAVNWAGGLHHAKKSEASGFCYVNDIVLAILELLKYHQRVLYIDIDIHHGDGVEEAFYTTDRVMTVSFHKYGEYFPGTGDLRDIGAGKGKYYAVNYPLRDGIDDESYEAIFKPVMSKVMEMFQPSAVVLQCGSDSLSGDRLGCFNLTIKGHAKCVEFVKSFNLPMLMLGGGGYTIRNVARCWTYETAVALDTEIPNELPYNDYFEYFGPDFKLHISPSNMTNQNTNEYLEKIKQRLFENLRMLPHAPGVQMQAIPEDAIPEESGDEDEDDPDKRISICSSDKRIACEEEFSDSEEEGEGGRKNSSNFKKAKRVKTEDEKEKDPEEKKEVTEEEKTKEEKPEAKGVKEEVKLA

TMD8 = assay: Cytotoxicity against human TMD8 cells assessed as inhibition of cell growth measured after 72 hrs by CellTiter-Glo luminescent viability assay; type: functional, cell-based; conditions: TMD8, 72 h
Ramos = assay: Cytotoxicity against human Ramos cells assessed as inhibition of cell growth measured after 72 hrs by CellTiter-Glo luminescent viability assay; type: functional, cell-based
[5] = Cmax in tumor of female SCID mouse xenografted with human Daudi cells at 25 to 100 mg/kg, iv measured upto 24 hrs by LC-MS/MS analysis; type: ADME, organism-based, Neoplasm; conditions: dose 25-100 mg/kg
[6] = AUC in tumor of female SCID mouse xenografted with human Daudi cells at 25 to 100 mg/kg, iv measured upto 24 hrs by LC-MS/MS analysis; type: ADME, organism-based, Neoplasm; conditions: in vivo, dose 25-100 mg/kg
NCI-H358 = assay: Cytotoxicity against human NCI-H358 cells assessed as inhibition of cell growth measured after 72 hrs by CellTiter-Glo luminescent viability assay; type: functional, cell-based; conditions: NCI-H358, 72 h
Calu-6 = assay: Cytotoxicity against human Calu-6 cells assessed as inhibition of cell growth measured after 72 hrs by CellTiter-Glo luminescent viability assay; type: functional, cell-based; conditions: Calu-6, 72 h
[7] = Half life in tumor of female SCID mouse xenografted with human Daudi cells at 25 to 100 mg/kg, iv measured upto 24 hrs by LC-MS/MS analysis; type: ADME, organism-based, Neoplasm; conditions: dose 25-100 mg/kg
LoVo = assay: Cytotoxicity against human LoVo cells assessed as inhibition of cell growth measured after 72 hrs by CellTiter-Glo luminescent viability assay; type: functional, cell-based
U-937 = assay: Cytotoxicity against human U-937 cells assessed as inhibition of cell growth measured after 72 hrs by CellTiter-Glo luminescent viability assay; type: functional, cell-based; conditions: U-937, 72 h
SW-620 = assay: Cytotoxicity against human SW620 cells assessed as inhibition of cell growth measured after 72 hrs by CellTiter-Glo luminescent viability assay; type: functional, cell-based; conditions: SW-620, 72 h
Histone deacetylase 11 = Histone deacetylase 11 (Homo sapiens, UniProt Q96DB2); assay: Inhibition of HDAC11 (unknown origin)
Histone deacetylase 11, sequence (Q96DB2 whole entry): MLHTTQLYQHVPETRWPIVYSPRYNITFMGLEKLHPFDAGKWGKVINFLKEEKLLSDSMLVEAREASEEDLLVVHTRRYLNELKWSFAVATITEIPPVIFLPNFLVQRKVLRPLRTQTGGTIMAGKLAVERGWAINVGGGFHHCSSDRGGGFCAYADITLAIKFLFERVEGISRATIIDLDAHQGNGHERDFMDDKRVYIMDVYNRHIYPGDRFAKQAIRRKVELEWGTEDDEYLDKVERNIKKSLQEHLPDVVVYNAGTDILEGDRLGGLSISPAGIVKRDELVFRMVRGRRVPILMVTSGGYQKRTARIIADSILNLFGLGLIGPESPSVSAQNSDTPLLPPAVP

THP-1 = assay: Cytotoxicity against human THP-1 cells assessed as inhibition of cell growth measured after 72 hrs by CellTiter-Glo luminescent viability assay; type: functional, cell-based; conditions: THP-1, 72 h

IC50 (K562 [1]): 1080 nM
SMILES: O=C(NO)c1ccc(N2CCN(C(=O)c3cc(-c4ccc(-c5ccccc5)cc4)nc4ccccc34)CC2)cc1
IC50 (U-266): 1080 nM

IC50 [3]: 9.3 nM | IC50 [4]: 0.9 nM | IC50 (Histone deacetylase 2): 0.9 nM | IC50 (Histone deacetylase 3): 0.9 nM | IC50 (Histone deacetylase 1): 0.9 nM | Cmax [5]: 14500 ng/g | AUC [6]: 17157.9 ng·h/g | half-life [7]: 7.9 h | IC50 (Histone deacetylase 11): 0.9 nM
SMILES: CNc1ccc(-c2nc(N3CCOCC3)c3sc(CN(C)c4ncc(C(=O)NO)cn4)cc3n2)cn1
IC50 (NCI-H1975): 0.3 nM | IC50 (PC-9): 0.3 nM | IC50 (K562 [2]): 0.3 nM | IC50 (SW480): 0.3 nM | IC50 (NCI-H2122): 0.3 nM | IC50 (HCT-116): 0.3 nM | IC50 (COLO 205): 0.3 nM | IC50 (MC-38): 0.3 nM | IC50 (NCI-H460): 0.3 nM | IC50 (Daudi): 0.3 nM | IC50 (TMD8): 0.3 nM | IC50 (Ramos): 0.3 nM | IC50 (NCI-H358): 0.3 nM | IC50 (Calu-6): 0.3 nM | IC50 (LoVo): 0.3 nM | IC50 (U-937): 0.3 nM | IC50 (SW-620): 0.3 nM | IC50 (THP-1): 0.3 nM

— ChEMBL document CHEMBL5614367, “Hydroxamic acid hybrids: Histone deacetylase inhibitors with anticancer therapeutic potency” (Eur J Med Chem, 2023)
